Results as given in patent US20250134952A1, “METHODS FOR IMPROVING THE EFFICACY OF HDAC INHIBITOR THERAPY AND PREDICTING THE RESPONSE TO TREATMENT WITH HDAC INHIBITOR” (INSTITUT NATIONAL DE LA SANTÉ ET DE LA RECHERCHE MÉDICALE, priority 2021, published 2025).

How the values were obtained:
Format in all cases: cell-based, human
breast cancer cell lines = test: Preliminary experiments: lowest dose of TSA inducing cellular responses
Description: To dissect the role of Tau in controlling chromatin we sought to perturb chromatin structure by inhibiting histone deacetylation with the pan-histone deacetylase-inhibitor trichostatin A (TSA). In our preliminary experiments we found the lowest dose of TSA inducing cellular responses was 100 nM and we used this concentration in all the following experiments. First, we evaluated cell death, apoptosis and cell cycle progression by flow cytometric analyses in the two cell lines (as above we just illustrate our results with MCF7 cells in the main paper). We tested the effect of TSA in the presence or absence of short hairpin RNAs (Tau and Control). After 48 hours there was a strong increase in the number of dead cells from less 2% to >50% in the Tau-knockdown cells and a lesser increase to 38% in sh-ctrl cells (FIG. 1). In agreement, apoptosis was measured at 48% and 30% respectively (FIG. 1C).

[1] = tested on: MCF7shctrl and MCF7shTau subclones; test: Cell death by staining and flow cytometric analysis (Zombie NIR); conditions: 100 nM TSA, 48 hours
Description: FIG. 1: Tau inhibition increases MCF7 breast cancer cell line sensitivity to TSA. (A) Tau protein expression in MCF7, MCF7shctrl and shTau were quantify by Elisa. (B) Effect of 100 nM TSA (48 h) on cell death in the MCF7shctrl and MCF7shTau subclones. Cell death was determined by staining and flow cytometric analysis as described in the materials and methods. (C) Effect of 100 nM TSA (48 h) on apoptosis in the MCF7shctrl and MCF7shTau subclones. Apoptosis was determined by flow cytometric analysis of the PI-positive and Annexin-V-positive cells as described in the materials and methods. (D) Cell cycle distribution was determined by FACS analysis of combined propidium iodide and EdU staining in MCF7shctrl and MCF7shTau in the absence or presence 100 nM TSA, 48 h. Data are mean±SD **P<0.01***P<0.001. […]
SH-SY5Y human neuroblastoma cells expressing Tau4R tagged with the streptavidin-binding peptide (SBP) (referred as SH-SY5Y-(SBP)Tau4R) (Chauderlier et al., 2018), SH-SY5Y-Tet-on-Tau4R, Hela cells, MCF7 and MDA-MB-231 were cultured in Dulbecco's Modified Eagle's Medium with 10% fetal bovine serum, 2 mM L-glutamine and 50 U/ml penicillin/streptomycin (Gibco) at 37° C. in 5% CO2 humidified air. […] For stable clones, luciferase activities were measured using the luciferase assay system (Promega) and normalized against protein concentration. […]

p21 (CDKN1a) = p21 (CDKN1a) expression by real-time PCR; conditions: 100 nM TSA, 24 h
Description: (A) Representative confocal sections of MCF7shctrl and shTau cells untreated or treated with 100 nM TSA for 24 h. […] (B) Quantification of HP1α clusters per nuclei visualized as described previously and realized on three independent experiments. (C) GADD45a and (D) p21 (CDKN1a) expression in MCF7shctrl and shTau cells untreated or treated with 100 nM TSA for 24 h were analyzed by real-time PCR and normalized to RPLO. Results are expressed, relative to the basal activity set to 1, as the mean±SD of three independent assays. (E) Tau tethering prevents adjacent reporter gene activity induced by TSA. GAL4UAS responsive luciferase reporter Hela stable cell line was transfected with GAL4DBD (GAL4) or GAL4DBD-Tau4R and then, 24 h later, treated with TSA (600 nM) for 24 h. The luciferase activity was determined as described in the Materials and Methods. (F) Ectopic Tau4R expression prevents adjacent reporter gene activity induced by TSA. […] The luciferase activity was determined as described in the Materials and Methods. […]
Total RNA was prepared using RNeasyMinikit (Qiagen). Reverse transcription (RT) was performed using random hexamers as recommended by the manufacturer (Applied Biosystems). cDNAs were analyzed by PCR amplification using the TaqMan PCR master mix (Applied Biosystems) and a mix of RPLO primers and probes. […]

## CC(/C=C/C(=O)NO)=C\[C@@H](C)C(=O)c1ccc(N(C)C)cc1 [TSA, 2,4-Heptadienamide, 7-[4-(dimethylamino)phenyl]-N-hydroxy-4,6-dimethyl-7-oxo-, (2E,4E,6R)-]
Breast cancer cell lines
  lowest dose of TSA inducing cellular responses: 100 nM
[1]; Tau-knockdown cells (MCF7shTau)
  number of dead cells: > 50%
[1]; sh-ctrl cells (MCF7shctrl)
  number of dead cells: 38%
p21 (CDKN1a); MCF7shctrl cells, relative to basal
  p21 induction (RT-qPCR): 2.5 fold
p21 (CDKN1a); cells with reduced Tau expression (MCF7shTau) vs MCF7shctrl
  p21 upregulation by TSA: exacerbated
